Reference: patent US6730792B2, “β3 adrenergic agonists” (Eli Lilly and Company, priority 2000, dated 2004)

Molecular target: T1, human β3 adrenergic receptor (Homo sapiens, UniProt P13945)
T1 construct: expressed in transfected cells; host or cells: DXB-11 Chinese hamster ovary (CHO) cell line, stably transfected (phd expression vector)
Test: whole cell receptor coupled c-AMP assay, human β3 receptor in CHO cells (EC50, Emax relative to isoproterenol)
Format: cell-based
Settings: % intrinsic activity relative to isoproterenol maximal response; average of at least 3 runs; c-AMP in transfected CHO cells
Procedure, shortened: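 Stably transfected DXB-11 CHO cells (20,000/well) were exposed to compound for 20 min at 37 °C in HBSS/HEPES buffer with 1 mM IBMX, pH 7.4. cAMP was measured by SPA. EC50 came from a four-parameter logistic fit, and Emax is the maximal response as a percentage of isoproterenol's.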

T1 sequence (P13945 whole entry): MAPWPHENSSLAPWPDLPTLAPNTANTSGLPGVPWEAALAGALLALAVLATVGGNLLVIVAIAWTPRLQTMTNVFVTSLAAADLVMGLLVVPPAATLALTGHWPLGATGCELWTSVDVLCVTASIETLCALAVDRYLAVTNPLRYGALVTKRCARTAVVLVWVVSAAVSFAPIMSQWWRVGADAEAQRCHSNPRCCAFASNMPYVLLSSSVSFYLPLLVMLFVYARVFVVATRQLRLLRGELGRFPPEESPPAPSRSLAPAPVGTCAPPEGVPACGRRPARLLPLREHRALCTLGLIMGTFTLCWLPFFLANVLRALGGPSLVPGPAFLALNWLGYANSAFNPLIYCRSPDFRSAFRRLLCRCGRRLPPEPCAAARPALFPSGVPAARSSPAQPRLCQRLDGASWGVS

Going from CC(=O)c1ccc(-c2ccccc2OC[C@@H](O)CNC(C)(C)Cc2ccc(Oc3ccc(C(N)=O)cn3)cc2)s1.O=C(O)C(F)(F)F [Example 411] to CC(C)(Cc1ccc(Oc2ccc(C#N)cn2)cc1)NC[C@H](O)COc1ccccc1-c1ccc(Cl)s1.O=C(O)C(F)(F)F [Example 406], the “Emax (%) ± SEM” value falls from 78.2 ± 9.9% to 55.8 ± 7.1%.

CC(C)(Cc1ccc(Oc2ccc(C#N)cn2)cc1)NC[C@H](O)COc1c(F)cccc1-c1ccc(Cl)s1.Cl [Example 428] and CC(C)(Cc1ccc(Oc2ncccc2C#N)cc1)NC[C@H](O)COc1c(F)cccc1-c1ccco1.Cl [Example 440] are within error of each other in “Emax (%) ± SEM” value: 75.5 ± 6.9% for the first, 73.4 ± 4.4% for the second.

Cc1ccc(-c2ccccc2OC[C@@H](O)CNC(C)(C)Cc2ccc(Oc3ncccc3C#N)cc2)s1.Cl [Example 413] and CC(C)(Cc1ccc(Oc2ncccc2C#N)cc1)NC[C@H](O)COc1ccccc1-c1ccc(Cl)s1.O=C(O)C(F)(F)F [Example 414] are within error of each other in “Emax (%) ± SEM” value: 66.9 ± 9.2% for the first, 65.7 ± 11.4% for the second.

Going from CC(C)(Cc1ccc(Oc2ncccc2C(N)=O)cc1)NC[C@H](O)COc1ccccc1-c1cccnc1 [Example 391] to CC(C)(Cc1ccc(Oc2ccc(S(C)(=O)=O)cc2)cc1)NC[C@H](O)COc1ccccc1-c1cccnc1.Cl.Cl [Example 392], the “Emax (%) ± SEM” value falls from 22.5 ± 1.5% to 17.6 ± 0.4%.

First: CC(C)(Cc1ccc(Oc2ccc(C(N)=O)cn2)cc1)NC[C@H](O)COc1ccccc1-c1ccsc1 [Example 379]
Second: CC(C)(Cc1ccc(Oc2ccc(C(N)=O)cn2)cc1)NC[C@H](O)COc1ccccc1-c1ccco1.Cl [Example 412]
The “Emax (%) ± SEM” value of the first is lower: 37.7 ± 1.6% for the first, 74.4 ± 7.0% for the second.

First: CC(C)(Cc1ccc(Oc2ccc(C(N)=O)cn2)cc1)NC[C@H](O)COc1ccccc1-c1cc2ccccc2o1 [Example 370]
Second: CC(C)(Cc1ccc(Oc2ccc(S(C)(=O)=O)cc2)cc1)NC[C@H](O)COc1ccccc1-c1cccs1.Cl [Example 383]
The “Emax (%) ± SEM” value of the first is lower: 40.3 ± 2.8% for the first, 52.1 ± 5.4% for the second.

Same assay, conditions: Emax ± SEM; average of at least 3 runs except as otherwise indicated; tested as the isolated form listed

Compared with CC(C)(Cc1ccc(Oc2ccccc2C(N)=O)cc1)NC[C@H](O)COc1ccccc1-c1ccon1.Cl [Example 301], CC(C)(Cc1ccc(Oc2ccc(C#N)nc2)cc1)NC[C@H](O)COc1ccccc1-c1ccon1.Cl [Example 300] is lower in “Emax (%) ± SEM” value: 69.2 ± 1.2% for the first, 52.2 ± 5.9% for the second.

Going from CC(C)(Cc1ccc(Oc2ccc(S(C)(=O)=O)cc2)cc1)NC[C@H](O)COc1ccccc1-c1ccoc1.Cl [Example 304] to CC(C)(Cc1ccc(Oc2ccc(C#N)nc2)cc1)NC[C@H](O)COc1ccccc1-c1ncco1.O=C(O)C(F)(F)F [Example 364], the “Emax (%) ± SEM” value rises from 44.8 ± 4.9% to 69.2 ± 2.5%.

Same assay, conditions: Emax ± standard error of the mean; average of at least 3 runs except where n = 1; compound tested in the isolated form listed

Going from CC(C)(Cc1ccc(Oc2ccc(C(N)=O)cn2)cc1)NC[C@H](O)COc1ccccc1N1CCOCC1.Cl.Cl [Example 23] to CC(C)(Cc1ccc(Oc2ccc(C(N)=O)cn2)cc1)NC[C@H](O)COc1ccccc1N1CCNCC1.Cl.Cl.Cl [Example 25], the “Emax (%) ± SEM” value falls from 29.9 ± 3.2% to 13.7 ± 3.5%.

Cn1ccc(-c2ccccc2OC[C@@H](O)CNC(C)(C)Cc2ccc(Oc3ncccc3C(N)=O)cc2)n1 [Example 15] and CC(C)(Cc1ccc(Oc2ncccc2C(N)=O)cc1)NC[C@H](O)COc1ccccc1-c1ccon1.Cl [Example 89] are within error of each other in “Emax (%) ± SEM” value: 70.9 ± 3.0% for the first, 71.8 ± 2.5% for the second.

First: CC(C)(Cc1ccc(Oc2cccnc2C#N)cc1)NC[C@H](O)COc1ccccc1-c1nccs1.O=C(O)C(F)(F)F [Example 144]
Second: CC(C)(Cc1ccc(Oc2cccnc2C#N)cc1)NC[C@H](O)COc1ccccc1-c1cccs1.O=C(O)C(F)(F)F [Example 143]
The “Emax (%) ± SEM” value of the first is lower: 55.9 ± 1.1% for the first, 67.2 ± 4.8% for the second.

Going from CC(C)(Cc1ccc(Oc2ncccc2C#N)cc1)NC[C@H](O)COc1ccccc1-c1cscn1.Cl [Example 239] to CC(C)(Cc1ccc(Oc2ncccc2C#N)cc1)NC[C@H](O)COc1ccccc1-c1ccnc(N)n1 [Example 61], the “Emax (%) ± SEM” value falls from 49.8 ± 4.5% to 32.8 ± 4.3%.

CC(C)(Cc1ccc(Oc2ccc(C#N)cn2)cc1)NC[C@H](O)COc1ccccc1-c1ccon1.Cl [Example 12] and CC(C)(Cc1ccc(Oc2ccc(C(N)=O)cn2)cc1)NC[C@H](O)COc1ccccc1-c1ccon1.Cl [Example 32] are within error of each other in “Emax (%) ± SEM” value: 64.8 ± 6.3% for the first, 54.2 ± 5.0% for the second.

Going from CC(C)(Cc1ccc(Oc2cccc(Cl)c2C#N)cc1)NC[C@H](O)COc1ccccc1-c1ccno1.O=C(O)C(F)(F)F [Example 217] to CC(C)(Cc1ccc(Oc2cccnc2C#N)cc1)NC[C@H](O)COc1ccccc1-c1ccno1.O=C(O)C(F)(F)F [Example 146], the “Emax (%) ± SEM” value falls from 76.2 ± 8.3% to 58.7 ± 2.9%.

Going from CC(C)(Cc1ccc(Oc2cccc(Cl)c2C(N)=O)cc1)NC[C@H](O)COc1ccccc1-c1cscn1.Cl [Example 246] to CC(C)(Cc1ccc(Oc2ccc(C(N)=O)cc2F)cc1)NC[C@H](O)COc1ccccc1-c1cscn1.Cl [Example 252], the “Emax (%) ± SEM” value falls from 52.1 ± 2.4% to 38.4 ± 3.8%.

CC(C)(Cc1ccc(Oc2ccc(C(N)=O)cn2)cc1)NC[C@H](O)COc1ccccc1-c1csnn1.O=C(O)C(=O)O [Example 44] and CC(C)(Cc1ccc(Oc2ccc(C(N)=O)cn2)cc1)NC[C@H](O)COc1ccccc1-c1ccnc(N)n1 [Example 33] are within error of each other in “Emax (%) ± SEM” value: 22.1 ± 3.3% for the first, 26.2 ± 4.3% for the second.

Compared with CC(C)(Cc1ccc(Oc2cccc(Cl)c2C#N)cc1)NC[C@H](O)COc1ccccc1-c1cccs1.O=C(O)C(F)(F)F [Example 216], CC(C)(Cc1ccc(Oc2ccccc2C#N)cc1)NC[C@H](O)COc1ccc(F)cc1-c1cccs1.O=C(O)C(F)(F)F [Example 214] is lower in “Emax (%) ± SEM” value: 85.4 ± 4.9% for the first, 42.4 ± 9.4% for the second.

First: CC(C)(Cc1ccc(Oc2ncccc2C(N)=O)cc1)NC[C@H](O)COc1ccccc1-n1ccc(C#N)c1.Cl [Example 271]
Second: CC(C)(Cc1ccc(Oc2ncccc2C(N)=O)cc1)NC[C@H](O)COc1ccccc1-c1ccno1.Cl [Example 73]
The “Emax (%) ± SEM” value of the first is lower: 39.0 ± 0.6% for the first, 69.5 ± 0.1% for the second.

CC(C)(Cc1ccc(Oc2cccnc2C(N)=O)cc1)NC[C@H](O)COc1ccccc1-c1ccno1.O=C(O)C(F)(F)F [Example 198] and CC(C)(Cc1ccc(Oc2ccc(C(N)=O)cc2)cc1)NC[C@H](O)COc1ccccc1-c1ccno1.O=C(O)C(F)(F)F [Example 125] are within error of each other in “Emax (%) ± SEM” value: 48.1 ± 6.5% for the first, 40.3 ± 7.9% for the second.

Going from COC(=O)c1ccc(Oc2ccc(CC(C)(C)NC[C@H](O)COc3ccccc3-c3cccs3)cc2)nc1 [Example 115] to CC(C)(Cc1ccc(Oc2ccc(Cl)nn2)cc1)NC[C@H](O)COc1ccccc1-c1cccs1.O=C(O)C(F)(F)F [Example 208], the “Emax (%) ± SEM” value rises from 61.9 ± 7.0% to 92.4 ± 7.3%.

CC(C)(Cc1ccc(Oc2ccc(C(N)=O)s2)cc1)NC[C@H](O)COc1ccccc1-c1cscn1.Cl [Example 259] and CC(C)(Cc1ccc(Oc2ccc(C(N)=O)o2)cc1)NC[C@H](O)COc1ccccc1-c1cscn1.Cl [Example 261] are within error of each other in “Emax (%) ± SEM” value: 54.1 ± 3.9% for the first, 52.3 ± 6.6% for the second.

CC(C)(Cc1ccc(Oc2ccc(C(N)=O)cn2)cc1)NC[C@H](O)COc1ccccc1-c1ncco1 [Example 45] and CC(C)(Cc1ccc(Oc2ncccc2C(N)=O)cc1)NC[C@H](O)COc1ccccc1-c1nnco1 [Example 86] are within error of each other in “Emax (%) ± SEM” value: 66.5 ± 3.9% for the first, 64.6 ± 3.3% for the second.

CCOC(=O)c1ccc(Oc2ccc(CC(C)(C)NC[C@H](O)COc3ccccc3-c3cccs3)cc2)c(F)c1.O=C(O)C(F)(F)F [Example 184] and CC(C)(Cc1ccc(Oc2ccncc2)cc1)NC[C@H](O)COc1ccccc1-c1cccs1.O=C(O)C(F)(F)F [Example 202] are within error of each other in “Emax (%) ± SEM” value: 64.1 ± 3.2% for the first, 59.1 ± 6.0% for the second.

Going from CC(C)(Cc1ccc(Oc2ncccc2C(N)=O)cc1)NC[C@H](O)COc1ccccc1-c1cc2ccccc2[nH]1 [Example 21] to CC(C)(Cc1ccc(Oc2ncccc2C(N)=O)cc1)NC[C@H](O)COc1cccc(-c2ccnc(N)n2)c1 [Example 91], the “Emax (%) ± SEM” value falls from 48.0 ± 2.0% to 24.9 ± 9.3%.

CC(C)(Cc1ccc(Oc2cccnc2C#N)cc1)NC[C@H](O)COc1ccccc1-n1cccc1.Cl [Example 268] and CC(C)(Cc1ccc(Oc2cccnc2C#N)cc1)NC[C@H](O)COc1ccccc1-c1ccns1.O=C(O)C(F)(F)F [Example 147] are within error of each other in “Emax (%) ± SEM” value: 54.6 ± 8.2% for the first, 58.9 ± 3.6% for the second.

CC(C)(Cc1ccc(-c2ccccc2C#N)cc1)NC[C@H](O)COc1ccccc1-c1ccno1.O=C(O)C(=O)O [Example 289] and CC(C)(Cc1ccc(Oc2ccc(C(F)(F)F)cc2Cl)cc1)NC[C@H](O)COc1ccccc1-c1ccno1.O=C(O)C(F)(F)F [Example 172] are within error of each other in “Emax (%) ± SEM” value: 37.4 ± 7.2% for the first, 40.4 ± 8.8% for the second.

First: CC(C)(Cc1ccc(Oc2ncccc2Cl)cc1)NC[C@H](O)COc1ccccc1-c1nccs1.O=C(O)C(F)(F)F [Example 179]
Second: CC(C)(Cc1ccc(Oc2ccc(C#N)nc2)cc1)NC[C@H](O)COc1ccccc1-c1nccs1.O=C(O)C(F)(F)F [Example 145]
The “Emax (%) ± SEM” value of the first is higher: 62.2 ± 8.6% for the first, 44.6 ± 6.2% for the second.

Going from CC(C)(Cc1ccc(Oc2ccc(Cl)nn2)cc1)NC[C@H](O)COc1ccccc1-c1ccns1.O=C(O)C(F)(F)F [Example 211] to CC(C)(Cc1ccc(Oc2ccc(C#N)cc2F)cc1)NC[C@H](O)COc1ccccc1-c1nccs1.O=C(O)C(F)(F)F [Example 188], the “Emax (%) ± SEM” value falls from 88.5 ± 9.3% to 38.3 ± 5.7%.

In the case of CC(C)(Cc1ccc(Oc2ccc(S(C)(=O)=O)cc2F)cc1)NC[C@H](O)COc1ccccc1-c1cscn1.Cl [Example 250], the “Emax (%) ± SEM” value is reported as 31.6 ± 3.1%.

Going from Cn1ccc(-c2ccccc2OC[C@@H](O)CNC(C)(C)Cc2ccc(Oc3ccc(C(N)=O)cn3)cc2)n1 [Example 67] to CC(C)(Cc1ccc(Oc2ccc(C(N)=O)cn2)cc1)NC[C@H](O)COc1ccc(-c2ccno2)cc1 [Example 36], the “Emax (%) ± SEM” value falls from 77.4 n = 1% to 17.5 n = 1%.
